Measurements published in PMC12884754, “A GLUTAMATE CYSTEINE LIGASE Gene StGSH1 Regulated by StERF10 Enhanced Glutathione Accumulation and Adaptation to Low Phosphorus Stress in Potato” (Advanced Science, 2025).

Tests used:
StGSH1 (monomer) = biological target: T1, StGSH1 (monomer) (Solanum tuberosum, UniProt M1AWB9); test: coupled pyruvate kinase/lactate dehydrogenase assay of ADP formation, A340; format: biochemical; conditions: standard reaction: pH 8.0, 100 mM Tris, 150 mM KCl, 20 mM MgCl2, 10 mM L-cysteine, 20 mM L-glutamate, read-out: ATP
T1 construct: gene LOC102600891; pET32a, E. coli BL21(DE3); His tag removed by TEV; monomer separated on Mono Q
T1 sequence (M1AWB9 74-523): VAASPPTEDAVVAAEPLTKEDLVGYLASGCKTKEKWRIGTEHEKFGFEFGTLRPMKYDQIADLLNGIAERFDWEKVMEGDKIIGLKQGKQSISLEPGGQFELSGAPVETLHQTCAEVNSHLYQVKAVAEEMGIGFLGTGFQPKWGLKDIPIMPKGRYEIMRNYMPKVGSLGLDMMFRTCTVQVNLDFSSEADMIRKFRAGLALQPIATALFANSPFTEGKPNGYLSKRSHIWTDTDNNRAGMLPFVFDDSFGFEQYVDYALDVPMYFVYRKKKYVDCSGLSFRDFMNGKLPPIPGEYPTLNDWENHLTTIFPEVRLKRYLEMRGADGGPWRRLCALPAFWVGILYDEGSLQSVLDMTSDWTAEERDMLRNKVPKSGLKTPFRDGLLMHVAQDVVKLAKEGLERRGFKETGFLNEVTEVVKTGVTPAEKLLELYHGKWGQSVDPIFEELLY
Text: coupled pyruvate kinase/lactate dehydrogenase assay of ADP formation, A340 on StGSH1 (monomer)

StGSH1 (dimer) = biological target: T2, StGSH1 (dimer) (Solanum tuberosum, UniProt M1AWB9); test: as above; format: biochemical; conditions: standard reaction: pH 8.0, 100 mM Tris, 150 mM KCl, 20 mM MgCl2, 10 mM L-cysteine, 20 mM L-glutamate; homo-dimer; read-out: ATP
T2 construct: gene LOC102600891; pET32a, E. coli BL21(DE3); His tag removed by TEV; homodimer separated on Mono Q
T2 sequence (M1AWB9 74-523): T1 sequence (M1AWB9 74-523)
Text: coupled pyruvate kinase/lactate dehydrogenase assay of ADP formation, A340 on StGSH1 (dimer)

Km (StGSH1 (monomer)): 2410 ± 360 µM
Km (StGSH1 (dimer)): 1000 ± 300 µM
Compound: Nc1ncnc2c1ncn2[C@@H]1O[C@H](COP(=O)(O)OP(=O)(O)OP(=O)(O)O)[C@@H](O)[C@H]1O [ATP]
